According to the supplement of paper PMC10307832:

What was measured:
Test in all cases: relative viability (nuclei count vs DMSO), 5 days (fraction); higher = more cells survive
Alisertib + Linsitinib = compound: COc1cc(Nc2ncc3c(n2)-c2ccc(Cl)cc2C(c2c(F)cccc2OC)=NC3)ccc1C(=O)O [Alisertib] + C[C@]1(O)C[C@@H](c2nc(-c3ccc4ccc(-c5ccccc5)nc4c3)c3c(N)nccn32)C1 [Linsitinib] (partner 1 µM)
How it was run: (§1)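 A single step with final 0.05% Triton X-100, 1% formaldehyde and 1 ug/ml Hoechst fixed the cells and stained nuclei 5 days after treatment. Lung cancer cell lines in 1536-well plates had been treated by pin tool the day after seeding with one drug alone or a fixed anchor-drug dose plus five library-drug doses (not always all listed) in √10 steps, and nuclei were counted on 4× images. Relative viability is the ratio of nuclei in treated wells to nuclei in vehicle wells, taken as the median of duplicate plates.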

Alisertib + Pictilisib = compound: COc1cc(Nc2ncc3c(n2)-c2ccc(Cl)cc2C(c2c(F)cccc2OC)=NC3)ccc1C(=O)O [Alisertib] + CS(=O)(=O)N1CCN(Cc2cc3nc(-c4cccc5[nH]ncc45)nc(N4CCOCC4)c3s2)CC1 [Pictilisib] (partner 1 µM)
How it was run: as §1

Alisertib + Alpelisib = compound: COc1cc(Nc2ncc3c(n2)-c2ccc(Cl)cc2C(c2c(F)cccc2OC)=NC3)ccc1C(=O)O [Alisertib] + Cc1nc(NC(=O)N2CCC[C@H]2C(N)=O)sc1-c1ccnc(C(C)(C)C(F)(F)F)c1 [Alpelisib] (partner 2 µM)
How it was run: as §1

Alisertib + Decitabine = compound: COc1cc(Nc2ncc3c(n2)-c2ccc(Cl)cc2C(c2c(F)cccc2OC)=NC3)ccc1C(=O)O [Alisertib] + Nc1ncn([C@H]2C[C@H](O)[C@@H](CO)O2)c(=O)n1 [Decitabine] (partner 2 µM)
How it was run: as §1

| Cell Line | relative viability (Alisertib + Linsitinib; first compound 0.005 µM) | relative viability (Alisertib + Linsitinib; first compound 0.01581 µM) | relative viability (Alisertib + Linsitinib; first compound 0.05 µM) | relative viability (Alisertib + Linsitinib; first compound 0.1581 µM) | relative viability (Alisertib + Linsitinib; first compound 0.5 µM) | relative viability (Alisertib + Pictilisib; first compound 0.005 µM) | relative viability (Alisertib + Pictilisib; first compound 0.01581 µM) | relative viability (Alisertib + Pictilisib; first compound 0.05 µM) | relative viability (Alisertib + Pictilisib; first compound 0.1581 µM) | relative viability (Alisertib + Pictilisib; first compound 0.5 µM) | relative viability (Alisertib + Alpelisib; first compound 0.005 µM) | relative viability (Alisertib + Alpelisib; first compound 0.01581 µM) | relative viability (Alisertib + Alpelisib; first compound 0.05 µM) | relative viability (Alisertib + Alpelisib; first compound 0.1581 µM) | relative viability (Alisertib + Alpelisib; first compound 0.5 µM) | relative viability (Alisertib + Decitabine; first compound 0.005 µM) | relative viability (Alisertib + Decitabine; first compound 0.01581 µM) | relative viability (Alisertib + Decitabine; first compound 0.05 µM) | relative viability (Alisertib + Decitabine; first compound 0.1581 µM) | relative viability (Alisertib + Decitabine; first compound 0.5 µM) |
| --- | --- | --- | --- | --- | --- | --- | --- | --- | --- | --- | --- | --- | --- | --- | --- | --- | --- | --- | --- | --- |
| LU99A | 0.532 | 0.511 | 0.193 | 0.177 | 0.168 | 0.404 | 0.341 | 0.252 | 0.159 | 0.151 | 0.493 | 0.455 | 0.181 | 0.163 | 0.154 | 0.856 | 0.85 | 0.311 | 0.27 | 0.186 |
| HCC-366 | 0.688 | 0.611 | 0.043 | 0.0079 | 0.0142 | 0.0828 | 0.135 | 0.0183 | 0.0243 | 0.0203 | 0.337 | 0.46 | 0.0611 | 0.0117 | 0.0152 | 0.29 | 0.16 | 0.0371 | 0.0279 | 0.0431 |
| EKVX | 0.942 | 0.831 | 0.344 | 0.211 | 0.183 | 0.405 | 0.418 | 0.266 | 0.157 | 0.15 | 0.819 | 0.811 | 0.49 | 0.215 | 0.185 | 0.303 | 0.302 | 0.206 | 0.174 | 0.158 |
| NCI-H522 | – | – | – | – | – | – | – | – | – | – | – | – | – | – | – | 0.69 | 0.686 | 0.558 | 0.443 | 0.408 |
| NCI-H1755 | 1 | 0.947 | 0.62 | 0.5 | 0.271 | 0.41 | 0.347 | 0.271 | 0.227 | 0.184 | 0.876 | 0.852 | 0.63 | 0.414 | 0.248 | 0.643 | 0.673 | 0.543 | 0.413 | 0.348 |
| NCI-H650 | 0.614 | 0.727 | 0.437 | 0.217 | 0.188 | 0.732 | 0.825 | 0.29 | 0.267 | 0.174 | 1.15 | 0.947 | 0.513 | 0.237 | 0.205 | 0.295 | 0.282 | 0.275 | 0.185 | 0.18 |
| LC-2-ad | 0.643 | 0.399 | 0.187 | 0.135 | 0.121 | 0.116 | 0.251 | 0.107 | 0.108 | 0.105 | 0.766 | 0.631 | 0.209 | 0.138 | 0.0966 | 0.736 | 0.673 | 0.442 | 0.263 | 0.23 |
| NCI-H1793 | 0.811 | 0.923 | 0.373 | 0.276 | 0.197 | 0.327 | 0.297 | 0.23 | 0.18 | 0.208 | 0.735 | 0.9 | 0.383 | 0.329 | 0.2 | 0.359 | 0.309 | 0.196 | 0.24 | 0.206 |
| HCC-827 | 0.908 | 0.928 | 0.543 | 0.434 | 0.316 | 0.869 | 0.978 | 0.515 | 0.381 | 0.361 | 1.05 | 0.913 | 0.321 | 0.282 | 0.232 | 0.373 | 0.303 | 0.246 | 0.219 | 0.24 |
